Reference: patent publication US12216122B2, “Compositions and methods relating to detection, inhibition, and imaging of indoleamine 2,3-dioxygenase 1 (IDO1)” (Regeneron Pharmaceuticals, Inc., priority 2019, dated 2025)
“Also recorded” adds a separate entry of the source. Read-outs that look alike come from different tables or passages of the source. One block for each compound: values may come before it. Numbered stars: 1 amine (or outer) side, 2 acyl side, 3 side chain; on linkers, the order of the positions; unused ones are H or OH. Bridge positions count the residues as written; N and C are the ends. Square brackets hold non-standard residues; d marks the D form. Triazole bridges read from a SMILES are 1,4-linked. Ends that are not written are not given here. Peptide text beside a SMILES is read from it. * marks the point of attachment. Biotinyl(3aR,4R,6aS) = O=C1N[C@@H]2[C@@H](CS[C@@H]2CCCCC(=O)*)N1; NH(CH2CH2O)5CH2CO = O=C(COCCOCCOCCOCCOCCN[*:1])[*:2]; dTrp(1-Me) = Cn1cc(C[C@@H](N)C(=O)O)c2ccccc21; X1 = O=C(CSc1nonc1/C(=N/O)Nc1ccc(F)c(Br)c1)*; Trp(1-Me) = Cn1cc(C[C@H](N)C(=O)O)c2ccccc21; Lys(N3) = [N-]=[N+]=NCCCC[C@H](N)C(=O)O; Phe(4-F) = N[C@@H](Cc1ccc(F)cc1)C(=O)O; dPhe(4-F) = N[C@H](Cc1ccc(F)cc1)C(=O)O; AEEEA = NCCOCCOCCOCC(=O)O; Pra = C#CC[C@H](N)C(=O)O; βAla = NCCC(=O)O

Columns and labels:
[1] = Percent organic elution in reverse-phase HPLC (C18) as lipophilicity readout; type: physicochemical; settings: for % MeCN: Table 16
Text: The predicted increase in lipophilicity for wyvay (SEQ ID NO:2) was experimentally confirmed by the percent organic (% B) elution during reverse-phase HPLC (RP-HPLC) using a C18 column where solvents A=water+0.1% TFA and B=acetonitrile+0.1% TFA.

[2] = target: T1, His-tagged IDO1 human recombinant protein (Homo sapiens, UniProt P14902); assay: IDO1 ELISA (Affinity Assay): sandwich ELISA, biotinylated ligand immobilized on NEUTRAVIDIN plate; type: binding; settings: for Binding to human IDO1 by ELISA, in words: alanine scan, 3-mer/4-mer and substituted variants compared with parent macrocycle
T1 construct: purchased BPS Biosciences 71182
Experimental: (§1) Protocol: A black 96-well NEUTRAVIDIN® Coated High Binding Capacity plate (15510, Pierce) was coated with 2 μM biotinylated macrocyclic peptide ligand in TBS (25 mM Tris-HCl, 150 mM NaCl, pH 7.6) for 2 h at room temperature. The plate was aspirated and then washed with Wash Buffer (0.05% (v/v) TWEEN® 20 in PBS, 6×). His-tagged IDO1 human recombinant protein (71182, BPS Biosciences) was serially diluted in Wash Buffer (from 200 to 0 nM) and incubated in the designated microwells for 1 h at room temperature. Microwells were aspirated and subsequently washed with Wash Buffer (11×). To detect the bound IDO1 protein, Alkaline Phosphatase (AP)-conjugated Anti-6×HIS TAG® antibody [HIS-1] (ab49746, Abcam) was prepared at 1:10,000 dilution and added to the microwells for 1 h at room temperature. The plate was aspirated and washed with Wash Buffer (5×). ATTOPHOS® AP Fluorescent Substrate System (S1000, Promega) was employed to develop the microwells. Using an excitation wavelength of 430 nm, fluorescent emission at 535 nm was recorded by Beckman Coulter DTX880 photometer. Titration curves were fit using a four-parameter regression curve fitting program to determine EC50 values.
For these assays, a dilution series of His-tagged IDO1 human recombinant protein was captured using the macrocyclic peptide ligands immobilized on a NEUTRAVIDIN®-coated plate. […] The sequences of the peptide ligands are listed in Table 1, where D-amino acids are denoted in lowercase, Me-Trp=1-methyl-L-tryptophan, and F-Phe=4-fluoro-L-phenylalanine. Chemical structures are shown below Table 1.
The D-alanine substituted, biotin-PEG3-modified macrocycles were tested in the IDO1 ELISA (Affinity assay). For these assays, a dilution series of His-tagged IDO1 human recombinant protein was captured using macrocycles immobilized on a NEUTRAVIDIN®-coated plate.

[3] = tested on: HeLa cells; assay: Cellular internalization of fluorescent IDO1 ligands (flow cytometry); type: cell-based; settings: for Internalization of fluorescently labeled peptide, in words: Cy5 or FITC label, flow cytometry
Experimental: Internalization of fluorescently labeled peptides (using Cy5 or FITC) was measured by concentration dependent flow cytometry of unstimulated HeLa cells incubated for one hour with the peptide. […] Internalization was also testing using a cellular inhibition assay, which occurs over 48 hours (rather than the one hour for the flow cytometry assay). Internalized FITC-wyvay (SEQ ID NO:2) at 48 hours was compared to one hour in both unstimulated and stimulated HeLa cells (Table 13). Cell penetration of FITC-wyvay (SEQ ID NO:2) increases with time; more internalized FITC-wyvay (SEQ ID NO:2) can be detected at 48 hours compared to one hour. After one hour, no difference in intracellular staining of FITC-wyvay (SEQ ID NO:2) is observed in unstimulated versus stimulated cells. At 48 hours, there is a slight increase in intracellular FITC-wyvay (SEQ ID NO:2) in stimulated compared to unstimulated cells.
Protocol: HeLa cells were cultured to confluence (˜500,000 cells) in 6-well plates in cell culture medium (DMEM+10% Fetal Bovine Serum (FBS)+1% Penicillin/Streptomycin) or in cell culture medium containing 100 ng/mL IFNγ to stimulate IDO1 expression. The cells were treated with 2 μM or 8 μM macrocyclic IDO1 ligand labeled with either Cy5 or FITC for either 1 hour, 24 hours, or 48 hours as indicated. After treatment, the ligands were aspirated and the cells were washed twice with 1× Phosphate Buffered Saline (PBS). The cells were then harvested by treatment with 0.05% Trypsin-1×EDTA for 5 min at 37° C. Trypsin was quenched by the addition of PBS+2% FBS. The cells in suspension were washed twice in PBS+2% FBS, then resuspended in 500 μL PBS+2% FBS and analyzed for Cy5 or FITC fluorescence using a BD LSR Fortessa X-20 flow cytometer or/and ImageStream X Mark II imaging flow cytometer. Flow Cytometry Standard (fcs) data files were analyzed using FlowJo Software version 10.

[4] = target: murine IDO1 protein (Mus musculus, UniProt P28776); assay: ELISA against murine IDO1 protein (species cross-reactivity); type: binding; settings: Table 10; read-out: Mouse IDO EC50
Experimental: as §1
To test for cross-reactivity with murine IDO1, the human IDO1 targeted macrocyclic peptide ligands were assayed against the murine IDO1 protein by ELISA.

[5] = binding analysis of VHL-linked Epitope 2 ligand, read-out: EC50
[6] = 2 μM biotinylated macrocycle immobilized, human IDO1 titrated 200 to 0 nM, read-out: EC50, sandwich ELISA for human IDO1 protein against biotin-PEG3-modified macrocycle
[7] = Table 10, read-out: Human IDO EC50

T1 sequence (P14902 whole entry): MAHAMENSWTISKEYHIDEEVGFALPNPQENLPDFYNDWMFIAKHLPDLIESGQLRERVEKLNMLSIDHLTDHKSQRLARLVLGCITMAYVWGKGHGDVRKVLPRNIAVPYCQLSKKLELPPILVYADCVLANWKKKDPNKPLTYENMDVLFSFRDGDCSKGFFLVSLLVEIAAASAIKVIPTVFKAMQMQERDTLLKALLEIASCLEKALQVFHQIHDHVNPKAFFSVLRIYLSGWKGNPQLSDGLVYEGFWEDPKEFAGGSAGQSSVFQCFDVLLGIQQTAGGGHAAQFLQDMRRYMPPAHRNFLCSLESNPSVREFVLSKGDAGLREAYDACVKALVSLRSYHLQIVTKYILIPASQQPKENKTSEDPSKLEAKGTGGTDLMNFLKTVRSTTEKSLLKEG
Chain of murine IDO1 protein (P28776 whole entry): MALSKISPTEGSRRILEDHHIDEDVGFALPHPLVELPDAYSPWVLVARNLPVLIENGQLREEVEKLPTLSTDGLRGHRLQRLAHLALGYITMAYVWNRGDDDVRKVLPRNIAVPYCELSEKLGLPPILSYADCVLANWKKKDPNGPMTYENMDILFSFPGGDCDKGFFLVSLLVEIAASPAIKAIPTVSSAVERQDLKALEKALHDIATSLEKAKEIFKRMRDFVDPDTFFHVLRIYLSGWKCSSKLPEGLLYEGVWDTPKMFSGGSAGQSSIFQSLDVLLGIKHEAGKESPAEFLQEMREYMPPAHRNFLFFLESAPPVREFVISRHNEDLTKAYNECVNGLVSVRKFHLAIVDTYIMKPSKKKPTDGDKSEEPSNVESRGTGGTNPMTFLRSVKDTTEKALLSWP

Compound: CC(C)[C@H]1NC(=O)[C@@H](Cc2ccc(O)cc2)NC(=O)[C@@H](Cc2c[nH]c3ccccc23)NC(=O)[C@@H](NC(=O)COCCOCCOCCOCCOCCNC(=O)CCNC(=O)CSc2nonc2/C(=N/O)Nc2ccc(F)c(Br)c2)Cc2cn(nn2)CCCC[C@@H](C(N)=O)NC(=O)[C@@H](Cc2ccc(O)cc2)NC(=O)[C@@H](C)NC1=O [Inh-BA-PEG5-wyvay] ({X1-βAla}-[NH(CH2CH2O)5CH2CO][Pra][dW][dY][dV][dA][dY][Lys(N3)]-NH2; triazole 2-8; N-terminus and C-terminus assumed)
- % MeCN [1]: 46.90%

- EC50 ([2]; Table 12, read-out: EC50): 45 nM
- Binding to human IDO1 by ELISA, in words [2]: modest loss in binding affinity
- EC50 [2, 5]: 45 nM
- HPLC % B ([1]; Table 12, C18, A=water+0.1% TFA, B=acetonitrile+0.1% TFA): 33.4%
Compound: CC(C)[C@H]1NC(=O)[C@@H](Cc2ccc(O)cc2)NC(=O)[C@@H](Cc2c[nH]c3ccccc23)NC(=O)[C@@H](N)Cc2cn(nn2)CCCC[C@@H](C(N)=O)NC(=O)[C@@H](Cc2ccc(O)cc2)NC(=O)[C@@H](C)NC1=O [wyvay] (H-[Pra][dW][dY][dV][dA][dY][Lys(N3)]-NH2; triazole 1-7)
- Internalization of fluorescently labeled peptide, in words [3]: dose response cellular uptake; also recorded: Concentration dependent internalization

Compound: CC(C)[C@H](NC(=O)CCNC(=O)CSc1nonc1/C(=N/O)Nc1ccc(F)c(Br)c1)C(=O)N[C@H](C(=O)N[C@H](C(=O)N[C@H]1Cc2cn(nn2)CCCC[C@@H](C(N)=O)NC(=O)[C@@H](Cc2ccc(O)cc2)NC(=O)[C@@H](C)NC(=O)[C@@H](C(C)C)NC(=O)[C@@H](Cc2ccc(O)cc2)NC(=O)[C@@H](Cc2c[nH]c3ccccc23)NC1=O)C(C)C)C(C)C [Inh-BA-(Val)3-wyvay] ({X1-βAla}-VVV[Pra][dW][dY][dV][dA][dY][Lys(N3)]-NH2; triazole 4-10)
- % MeCN [1]: 45.12%

- EC50 [2, 6]: 43 nM
- EC50 [2, 7]: 51 ± 17 nM
- EC50 [4]: 48 nM
Compound: CC(C)C[C@H]1NC(=O)[C@@H](CC(N)=O)NC(=O)[C@@H](NC(=O)COCCOCCOCCNC(=O)CCCC[C@H]2SC[C@H]3NC(=O)N[C@H]32)Cc2cn(nn2)CCCC[C@@H](C(N)=O)NC(=O)[C@@H](CCCNC(=N)N)NC(=O)[C@@H](Cc2cn(C)c3ccccc23)NC(=O)[C@@H](Cc2c[nH]c3ccccc23)NC1=O [nlw(Me-Trp)r, biotin-PEG3-Cy(nlw(Me-Trp)r)] ({Biotinyl(3aR,4R,6aS)-AEEEA}-[Pra][dN][dL][dW][dTrp(1-Me)][dR][Lys(N3)]-NH2; triazole 1-7)

- EC50 [2, 6]: 65 nM
- EC50 [2, 7]: 85 ± 18 nM
- EC50 [4]: 44 nM
Compound: NC(=O)[C@@H]1CCCCn2cc(nn2)C[C@H](NC(=O)COCCOCCOCCNC(=O)CCCC[C@H]2SC[C@H]3NC(=O)N[C@H]32)C(=O)N[C@H](CO)C(=O)N2CCC[C@@H]2C(=O)N[C@H](Cc2c[nH]c3ccccc23)C(=O)N[C@H](Cc2c[nH]c3ccccc23)C(=O)N[C@H](Cc2ccc(F)cc2)C(=O)N1 [spww(F-Phe), biotin-PEG3-Cy(spww(F-Phe))] ({Biotinyl(3aR,4R,6aS)-AEEEA}-[Pra][dS][dP][dW][dW][dPhe(4-F)][Lys(N3)]-NH2; triazole 1-7)

Compound: CC(C)[C@H]1NC(=O)[C@@H](Cc2ccc(O)cc2)NC(=O)[C@@H](Cc2c[nH]c3ccccc23)NC(=O)[C@@H](NC(=O)CNC(=O)CNC(=O)CNC(=O)CNC(=O)CNC(=O)CNC(=O)CNC(=O)CSc2nonc2/C(=N/O)Nc2ccc(F)c(Br)c2)Cc2cn(nn2)CCCC[C@@H](C(N)=O)NC(=O)[C@@H](Cc2ccc(O)cc2)NC(=O)[C@@H](C)NC1=O [Inh-Gly7-wyvay] (X1-GGGGGGG[Pra][dW][dY][dV][dA][dY][Lys(N3)]-NH2; triazole 8-14)
- % MeCN [1]: 43.72%

- EC50 [2, 6]: 20 nM
- EC50 ([2]; Example 9, read-out: Binding affinity (EC50) of prioritized Epitope 1 hits): 20 nM
- EC50 [2, 7]: 18 ± 2 nM
- EC50 [4]: 36 ± 16 nM
Compound: Cn1cc(C[C@H]2NC(=O)[C@@H](Cc3ccccc3)NC(=O)[C@@H](CCCNC(=N)N)NC(=O)[C@@H](Cc3ccccc3)NC(=O)[C@@H](NC(=O)COCCOCCOCCNC(=O)CCCC[C@H]3SC[C@H]4NC(=O)N[C@H]43)Cc3cn(nn3)CCCC[C@@H](C(N)=O)NC(=O)[C@@H](CO)NC2=O)c2ccccc21 [frf(Me-Trp)s, biotin-PEG3-Cy(frf(Me-Trp)s)] ({Biotinyl(3aR,4R,6aS)-AEEEA}-[Pra][dF][dR][dF][dTrp(1-Me)][dS][Lys(N3)]-NH2; triazole 1-7)

Compound: Cy5-nlf(Me-Trp)(F-Phe): Cy5 labeled Epitope 2 macrocycle nlf(Me-Trp)(F-Phe) ([dN][dL][dF][Trp(1-Me)][Phe(4-F)]; triazole (positions not given here); not fully specified (N-terminus, C-terminus, bridges); printed as Cy5-nlf(Me-Trp)(F-Phe); also: Cy5 label, macrocycle, closure not given here)
- Internalization of fluorescently labeled peptide, in words [3]: detected by flow cytometry and imaging

Compound: N=C(N)NCCC[C@H]1NC(=O)[C@@H](Cc2ccc(O)cc2)NC(=O)[C@@H](Cc2c[nH]c3ccccc23)NC(=O)[C@@H](NC(=O)COCCOCCOCCNC(=O)CCCC[C@H]2SC[C@H]3NC(=O)N[C@H]32)Cc2cn(nn2)CCCC[C@@H](C(N)=O)NC(=O)[C@@H](Cc2ccc(O)cc2)NC1=O [wyry, Biotin-PEG3-Cy(wyry)] ({Biotinyl(3aR,4R,6aS)-AEEEA}-[Pra][dW][dY][dR][dY][Lys(N3)]-NH2; triazole 1-6)
- Binding to human IDO1 by ELISA, in words [2]: best affinity among the 4-mer macrocycles; also recorded: superior binding affinity
- Internalization of fluorescently labeled peptide, in words [3]: Concentration dependent internalization

Compound: FITC-wyvay: FITC labeled wyvay macrocycle ([dW][dY][dV][dA][dY]; triazole (positions not given here); also: FITC label, site not given here, macrocycle by click between N-terminal Pra and C-terminal Az4, not in chain)
- MFIR ([3]; stimulated HeLa cells, 1 hour): 2.11
- MFIR ([3]; stimulated HeLa cells, 48 hours): 5.27
- MFIR ([3]; unstimulated HeLa cells, 1 hour): 2.27
- MFIR ([3]; unstimulated HeLa cells, 48 hours): 4.91

- EC50 [2, 6]: 20 nM
- EC50 [2, 7]: 19 ± 1 nM
- EC50 [2, 5]: 44 nM
- EC50 [4]: 89 ± 26 nM
Compound: CC(C)C[C@H]1NC(=O)[C@@H](CC(N)=O)NC(=O)[C@@H](NC(=O)COCCOCCOCCNC(=O)CCCC[C@H]2SC[C@H]3NC(=O)N[C@H]32)Cc2cn(nn2)CCCC[C@@H](C(N)=O)NC(=O)[C@@H](Cc2ccc(F)cc2)NC(=O)[C@@H](Cc2cn(C)c3ccccc23)NC(=O)[C@@H](Cc2ccccc2)NC1=O [nlf(Me-Trp)(F-Phe), biotin-PEG3-Cy(nlf(Me-Trp)(F-Phe))] ({Biotinyl(3aR,4R,6aS)-AEEEA}-[Pra][dN][dL][dF][dTrp(1-Me)][dPhe(4-F)][Lys(N3)]-NH2; triazole 1-7)
